Reference: patent US12006317B1, “5-substituted aminopyrimido [6′,1′:2,3] imidazo [4,5-c] [2,6] naphthyridine compounds as CK2 inhibitors” (KING FAISAL UNIVERSITY, priority 2023, dated 2024)

Tests used:
[1] = tested on: PC3 (prostate) cancer cells; assay: In vitro cytotoxic activity MTT assay, PC3; assay type: cell-based; conditions: Homo sapiens, Prostate cell, cells exposed for 96 hours, read-out: IC50, 50% inhibition of cell proliferation
Procedure: (§1) Compounds 1-12 were screened for their in vitro cytotoxic activity utilizing a 3-(4,5-dimethyl-thiazol-2-yl)-2,5-diphenyltetrazolium bromide (MTT) assay against selected cancer human cell lines consisting of PC3 (prostate), HCT116 (colon), A375 (melanoma), H1299 (lung), MIAPaCa-2 (pancreas), HL60 (leukemia), MCF7 (breast), MDA-MB-231 (breast) (T. Mosmann, J. Immmol. Meth., 1983, 65, 55-63). The cells were cultured at 37° C. in RMPI1640 medium supplemented with 10% fetal bovine serum, 50 IU/mL penicillin, and 50 μg/mL streptomycin in a 5% CO2 incubator. All cells were sub-cultured 3 times/week by trypsinisation. Viable cells were seeded and allowed to adhere for 12 h before a test drug was added in 96-well plates at an initial density of 1.0×10^5 cells/mL. Tumour cell lines were separately exposed to various concentrations of the tested compounds followed by incubation at a temperature of 37° C. during 96 h inside a medium of fresh RMPI 1640. Cells were subsequently incubated at 37° C. using MTT at 0.5 mg/mL during 4 h. After removal of supernatant, formazan crystals were dissolved in isopropanol and the optical density was measured at 570 nm. CX-4945 was used as a positive control.

[2] = biological target: T1, recombinant human CK2 (RRββ-holoenzyme) (Homo sapiens, UniProt P68400); assay: CK2 Kinase Assay (33P-ATP, substrate peptide RRRDDDSDDD); assay type: biochemical; conditions: final ATP concentration 15 μM, 10 min at 30° C.; read-out: protein kinase CK2 IC50
T1 construct: purchased Millipore
T1 sequence (P68400 whole entry): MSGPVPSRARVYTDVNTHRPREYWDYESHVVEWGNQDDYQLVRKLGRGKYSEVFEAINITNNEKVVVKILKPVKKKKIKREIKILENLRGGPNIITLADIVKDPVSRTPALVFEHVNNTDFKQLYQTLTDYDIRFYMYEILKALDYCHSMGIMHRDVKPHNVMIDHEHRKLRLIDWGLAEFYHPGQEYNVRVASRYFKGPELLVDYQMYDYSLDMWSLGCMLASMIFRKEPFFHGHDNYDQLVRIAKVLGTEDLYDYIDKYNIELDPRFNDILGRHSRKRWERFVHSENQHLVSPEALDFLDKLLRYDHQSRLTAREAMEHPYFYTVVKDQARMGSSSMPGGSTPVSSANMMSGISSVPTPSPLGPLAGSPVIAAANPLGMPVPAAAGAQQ
T1 sequence (P67870 whole entry partner): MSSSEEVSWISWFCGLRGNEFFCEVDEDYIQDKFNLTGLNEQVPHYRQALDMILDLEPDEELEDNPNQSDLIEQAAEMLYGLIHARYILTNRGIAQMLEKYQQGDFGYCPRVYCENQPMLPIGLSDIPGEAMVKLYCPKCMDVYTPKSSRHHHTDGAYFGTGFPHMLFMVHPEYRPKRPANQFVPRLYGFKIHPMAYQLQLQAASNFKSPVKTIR
Procedure: CK2 Kinase Assay was conducted using the protocol as described in Pierre F. et al; J. Med. Chem. 2011, 54, 635-654. The tested compounds in aqueous solution were added at a volume of 10 μL to a reaction mixture comprising 10 μL of assay dilution buffer (ADB; 20 mM MOPS, pH 7.2, 25 mM β-glycerol phosphate, 5 mM EGTA, 1 mM sodium orthovanadate, and 1 mM dithiothreitol), 10 μL of substrate peptide (RRRDDDSDDD, dissolved in ADB at a concentration of 1 mM), 10 μL of recombinant human CK2 (RRββ-holoenzyme, 25 ng dissolved in ADB; Millipore). Reactions were initiated by the addition of 10 μL of ATP solution (90% 75 mM MgCl2, 75 μM ATP (final ATP concentration:15 μM) dissolved in ADB; 10% [γ-33P] ATP (stock 1 mCi/100 μL; 3000 Ci/mmol (Perkin-Elmer) and maintained for 10 min at 30° C. The reactions were quenched with 100 μL of 0.75% phosphoric acid and then transferred to and filtered through a phosphor cellulose filter plate (Millipore). After washing each well five times with 0.75% phosphoric acid, the plate was dried under vacuum for 5 min and, following the addition of 15 μL of scintillation fluid to each well, the residual radioactivity was measured using a Wallac […]. The IC50 values were derived from eight concentrations of test inhibitors.

[3] = tested on: A375 (melanoma) cancer cells; assay: In vitro cytotoxic activity MTT assay, A375; assay type: cell-based; conditions: Homo sapiens, A-375, cells exposed for 96 hours, read-out: IC50, 50% inhibition of cell proliferation
Procedure: as §1

[4] = tested on: MCF7 (breast) cancer cells; assay: In vitro cytotoxic activity MTT assay, MCF7; assay type: cell-based; conditions: Homo sapiens, cells exposed for 96 hours, read-out: IC50, 50% inhibition of cell proliferation
Procedure: as §1

[5] = tested on: HL60 (leukemia) cancer cells; assay: In vitro cytotoxic activity MTT assay, HL60; assay type: cell-based; conditions: Homo sapiens, HL-60, cells exposed for 96 hours, read-out: IC50, 50% inhibition of cell proliferation
Procedure: as §1

[6] = tested on: MIAPaCa-2 (pancreas) cancer cells; assay: In vitro cytotoxic activity MTT assay, MIAPaCa-2; assay type: cell-based; conditions: Homo sapiens, MIA PaCa-2, cells exposed for 96 hours, read-out: IC50, 50% inhibition of cell proliferation
Procedure: as §1

[7] = tested on: MDA-MB-231 (breast) cancer cells; assay: In vitro cytotoxic activity MTT assay, MDA-MB-231; assay type: cell-based; conditions: Homo sapiens, cells exposed for 96 hours, read-out: IC50, 50% inhibition of cell proliferation
Procedure: as §1

[8] = tested on: HCT116 (colon) cancer cells; assay: In vitro cytotoxic activity MTT assay, HCT116; assay type: cell-based; conditions: Homo sapiens, HCT-116, cells exposed for 96 hours, read-out: IC50, 50% inhibition of cell proliferation
Procedure: as §1

[9] = tested on: H1299 (lung) cancer cells; assay: In vitro cytotoxic activity MTT assay, H1299; assay type: cell-based; conditions: Homo sapiens, NCI-H1299, cells exposed for 96 hours, read-out: IC50, 50% inhibition of cell proliferation
Procedure: as §1

- IC50 [2]: 12 nM
Compound: Clc1cccc(Nc2nc3c(nc4ccncn43)c3cnccc23)c1 [Compound 1, N-(3-chlorophenyl)pyrimido[6′,1′:2,3]imidazo[4,5-c][2,6]naphthyridin-5-amine]
- IC50 [1]: 1300 nM
- IC50 [3]: 2800 nM
- IC50 [4]: 5100 nM
- IC50 [5]: 3400 nM
- IC50 [6]: 900 nM
- IC50 [7]: 3900 nM
- IC50 [8]: 1200 nM
- IC50 [9]: 2100 nM
